Data set [1] concerns the target T1, human AR (androgen receptor) (Homo sapiens, UniProt P10275).
T1 construct: expressed in transfected cells; host or cells: 293 cells (293-AR lysate)
T1 sequence (P10275 1-920): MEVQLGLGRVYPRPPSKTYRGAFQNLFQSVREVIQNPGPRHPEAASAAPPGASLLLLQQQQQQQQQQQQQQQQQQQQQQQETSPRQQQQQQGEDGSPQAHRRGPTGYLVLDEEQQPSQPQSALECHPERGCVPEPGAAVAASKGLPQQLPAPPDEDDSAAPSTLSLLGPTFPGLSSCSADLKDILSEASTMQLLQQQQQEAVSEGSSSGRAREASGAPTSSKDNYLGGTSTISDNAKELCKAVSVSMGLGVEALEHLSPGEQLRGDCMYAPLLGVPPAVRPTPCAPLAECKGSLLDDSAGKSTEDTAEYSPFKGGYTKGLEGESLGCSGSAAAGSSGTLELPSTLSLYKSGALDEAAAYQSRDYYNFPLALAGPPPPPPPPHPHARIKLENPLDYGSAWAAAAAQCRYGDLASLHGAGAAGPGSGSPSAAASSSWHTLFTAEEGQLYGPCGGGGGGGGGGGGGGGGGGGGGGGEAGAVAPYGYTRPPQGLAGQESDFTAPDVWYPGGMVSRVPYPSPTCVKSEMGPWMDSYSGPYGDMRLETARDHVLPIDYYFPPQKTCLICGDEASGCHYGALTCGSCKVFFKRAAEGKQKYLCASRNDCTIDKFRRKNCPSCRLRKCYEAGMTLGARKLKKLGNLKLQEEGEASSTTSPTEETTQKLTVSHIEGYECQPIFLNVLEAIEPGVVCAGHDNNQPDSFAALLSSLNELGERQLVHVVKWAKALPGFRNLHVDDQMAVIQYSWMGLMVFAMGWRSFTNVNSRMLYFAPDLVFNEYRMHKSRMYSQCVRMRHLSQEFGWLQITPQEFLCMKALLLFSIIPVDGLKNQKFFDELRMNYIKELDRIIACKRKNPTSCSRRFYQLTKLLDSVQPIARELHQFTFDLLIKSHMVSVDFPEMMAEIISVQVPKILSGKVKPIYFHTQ
In words: Steroid hormone nuclear receptor binding assay, AR binding. An outline of the steps:
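Competition binding with lysates of 293 cells overexpressing human AR, [3H]-methyltrienolone tracer, compounds from about 0.01 nM to 10 μM, overnight at 4 °C; non-specific binding set with 500 nM methyltrienolone. Bound tracer counted by scintillation after charcoal-dextran separation; IC50 converted to Ki by Cheng-Prusoff using Kd from saturation binding.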

Data set [2] deals with T2, human androgen receptor (AR) (Homo sapiens, UniProt P10275).
T2 construct: expressed in transfected cells; host or cells: mouse myoblast C2C12 cells, transiently co-transfected
T2 sequence (P10275 1-920): T1 sequence (P10275 1-920)
In words: C2C12 AR/ARE reporter assay. The class given is cell-based. Conditions: for Emax: C2C12, read-out: C2C12 % Efficacy. In outline:
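Mouse C2C12 myoblasts co-transfected with AR/ARE reporter were plated in charcoal-stripped serum and treated for 48 h with compound from about 0.01 nM to 10 μM. Luciferase activity gave EC50 by 4-parameter logistic fit. Efficacy is expressed as % of maximal stimulation by 10 nM methyltrienolone.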

Structures are written as SMILES.

The compound `CC(C)C(=O)NC1CCc2c(c3cc(F)ccc3n2Cc2ccc(Cl)cc2)C1` (centres unmarked) [Example 13] came in with a melting point of 188 to 190 °C. The compound also gave a Ki in data set [1] of 33.5 nM. In data set [2], the response was half-maximal at 1030 nM (EC50) and the Emax turned out to be 55.5%.

Take `CC(C)C(=O)NC1CCc2c(c3cc(-c4ccccn4)ccc3n2Cc2cccc(F)c2)C1` (centres unmarked) [Example 131, N-[9-(3-Fluorobenzyl)-6-pyridin-2-yl-2,3,4,9-tetrahydro-1H-carbazol-3-yl]isobutyramide]: the melting point was in the range of 228 to 230 °C. Moreover, in data set [1], the Ki was determined as 118 nM. Also, in data set [2], the EC50 was found to be 65.2 nM and the Emax came to 91.3%.

`COc1ccc(Cn2c3c(c4cc(F)ccc42)CC(NC(=O)C(C)C)CC3)cc1` (centres unmarked) [Example 15] displayed a melting point of 178 to 181 °C. In addition, in data set [1], the Ki came out at 275 nM. The Emax in data set [2] worked out at 15.3%.

Regarding `CC(C)C(=O)NC1CCc2c(c3ccccc3n2Cc2ccccc2)C1` (centres unmarked) [Example 2], the melting point fell in the range of 191 to 193 °C. In data set [1], this compound came in with a Ki of 17.7 nM. For the same compound, in data set [2], the response was half-maximal at 313 nM (EC50) and the Emax turned out to be 59.4%.

As for `COc1ccccc1Cn1c2c(c3cc(F)ccc31)CC(NC(=O)C(C)C)CC2` (centres unmarked) [Example 6], the melting point lay in the range of 196 to 198 °C. Besides, the Ki in data set [1] is 156 nM. Also, in data set [2], the EC50 was 1770 nM and the Emax stood at 49.7%.

On to `Cc1ccc2c(c1)c1c(n2Cc2ccccc2C#N)CCC(NC(=O)C(C)C)C1` (centres unmarked) [Example 46], for which the melting point is 218 to 220 °C. In data set [1], the affinity corresponds to a Ki of 137 nM. Moreover, the Emax in data set [2] amounted to 40.5%.

In the case of `COc1cc2c3c(n(Cc4cccc(F)c4)c2cc1Cl)CCC(NC(=O)C(C)C)C3` (centres unmarked) [Example 59], the melting point is 212 to 215 °C. For the same compound, the Ki in data set [1] turned out to be 59 nM. For the same compound, in data set [2], a half-maximal effect (EC50) was put at 242 nM and the Emax stood at 39.5%.

Compound `COC(=O)Nc1ccc2c(c1)c1c(n2Cc2cccc(F)c2)CC[C@@H](NC(=O)C(C)C)C1` [Example 190, (R)-[9-(3-Fluorobenzyl)-6-isobutyrylamino-6,7,8,9-tetrahydro-5H-carbazol-3-yl]-carbamic acid methyl ester] came in with a melting point of 111 to 115 °C. The affinity in data set [1], expressed as Ki, was 6.7 nM. In data set [2], the response was half-maximal at 2.2 nM (EC50) and the Emax came out at 86%.

`CC(C)C(=O)NC1CCc2c(c3cc(Br)ccc3n2Cc2ccccc2C#N)C1` (centres unmarked) [Example 33] had a melting point of 240 to 241.5 °C. The same compound registered a Ki in data set [1] of 13 nM. Also, in data set [2], a half-maximal effect (EC50) was put at 433 nM and the Emax came out at 87.3%.

Consider `COc1ccc(Cn2c3c(c4cc(Br)ccc42)CC(NC(=O)C(C)C)CC3)cc1` (centres unmarked) [Example 41], for which the melting point was 120 to 125 °C. In addition, in data set [1], the Ki turned out to be 43.2 nM. Besides, in data set [2], the midpoint of the response, the EC50, lay at 1820 nM and the Emax is 46.6%.

`Cc1ccc2c(c1)c1c(n2Cc2ccccc2F)CCC(NC(=O)C(C)C)C1` (centres unmarked) [Example 43] came in with a melting point of 174 to 176 °C. This compound also gave a Ki in data set [1] of 104 nM. In addition, in data set [2], the EC50 stood at 462 nM and the Emax was 69.6%.

The compound `CC(C)C(=O)N[C@@H]1CCc2c(c3cc(-c4ccno4)ccc3n2Cc2cccc(F)c2)C1` [Example 192, (R)-N-[9-(3-Fluoro-benzyl)-6-isoxazol-5-yl-2,3,4,9-tetrahydro-1H-carbazol-3-yl]-isobutyramide] showed a melting point of 238 to 241 °C. The compound further yielded a Ki in data set [1] of 2.6 nM. Also, in data set [2], the EC50 was found to be 7.7 nM and the Emax turned out to be 66.5%.

For `CC(C)C(=O)NC1CCc2c(c3cc(F)ccc3n2Cc2cccc(Cl)c2)C1` (centres unmarked) [Example 9], the melting point lay within 177 to 179 °C. In data set [1], this compound gave a Ki of 7.2 nM. In data set [2], the response was half-maximal at 113 nM (EC50) and the Emax amounted to 62.3%.

Take `CC(C)C(=O)NC1CCc2c(c3cc(Br)ccc3n2Cc2ccccc2F)C1` (centres unmarked) [Example 31]: the melting point is 194 to 197 °C. In addition, the Ki in data set [1] is 5.3 nM. Further, in data set [2], the EC50 came to 58.7 nM and the Emax turned out to be 70.8%.

`COc1ccccc1Cn1c2c(c3cc(Cl)ccc31)CC(NC(=O)C(C)C)CC2` (centres unmarked) [Example 19, N-[6-chloro-9-(2-methoxy-benzyl)-2,3,4,9-tetrahydro-1H-carbazol-3-yl]-isobutyramide] had a melting point of 141 to 149 °C. Moreover, in data set [1], the Ki came to 37.8 nM. Further, in data set [2], the midpoint of the response, the EC50, lay at 245 nM and the Emax was 63.2%.

In turn, `N#Cc1ccc2c(c1)c1c(n2Cc2cccc(F)n2)CC[C@@H](NC(=O)C2CC2)C1` [Example 195, Cyclopropanecarboxylic acid[6-cyano-9-(6-fluoro-pyridin-2-ylmethyl)-2,3,4,9-tetrahydro-1H-carbazol-3-yl]-amide] displayed a melting point of 243 to 245 °C. This compound gave a Ki in data set [1] of 4.3 nM. In data set [2], a half-maximal response (EC50) required 2.7 nM and the Emax came out at 96.5%.

`CC(C)C(=O)NC1CCc2c(c3cc(Br)ccc3n2Cc2cccc(C#N)c2)C1` (centres unmarked) [Example 38] registered a melting point of 228 to 230 °C. In data set [1], this compound registered an inhibitory constant (Ki) of 9.7 nM. Moreover, in data set [2], the EC50 was determined as 108 nM and the Emax is 79.5%.

Turning to `CC(C)C(=O)NC1CCc2c(c3cccc(Cl)c3n2Cc2cccc(F)c2)C1` (centres unmarked) [Example 57], the melting point was 205 to 207 °C. Also, in data set [1], the Ki was found to be 25.1 nM. In data set [2], it took 323 nM to reach a half-maximal effect (EC50) and the Emax came out at 36.5%.

`CC(C)C(=O)NC1CCc2c(c3cc(C#N)ccc3n2Cc2ccccc2C(F)(F)F)C1` (centres unmarked) [Example 96, N-[6-Cyano-9-(2-trifluoromethyl-benzyl)-2,3,4,9-tetrahydro-1H-carbazol-3-yl]-isobutyramide] registered a melting point of 222 to 225 °C. This compound also registered a Ki in data set [1] of 14.7 nM. Further, in data set [2], the EC50 came out at 123 nM and the Emax turned out to be 88%.

Consider `CC(C)C(=O)NC1CCc2c(c3cc(C(N)=O)ccc3n2Cc2cccc(F)c2)C1` (centres unmarked) [Example 63, 9-(3-Fluorobenzyl)-6-isobutyrylamino-6,7,8,9-tetrahydro-5H-carbazole-3-carboxylic acid amide], for which the melting point was 192 to 194 °C. The inhibitory constant (Ki) in data set [1] stood at 39.3 nM. For the same compound, in data set [2], the EC50 was 66.9 nM and the Emax was found to be 113%.

`CC(C)C(=O)NC1CCc2c(c3cc(-c4nccs4)ccc3n2Cc2cccc(F)c2)C1` (centres unmarked) [Example 130, N-[9-(3-Fluorobenzyl)-6-thiazol-2-yl-2,3,4,9-tetrahydro-1H-carbazol-3-yl]isobutyramide]: the melting point lay in the range of 221 to 225 °C. Further, the Ki in data set [1] worked out at 13.6 nM. In data set [2], the midpoint of the response, the EC50, lay at 5 nM and the Emax turned out to be 85.6%.

`CC(C)C(=O)NC1CCc2c(c3cc(F)ccc3n2Cc2ccccc2Cl)C1` (centres unmarked) [Example 5]: the melting point fell in the range of 155 to 157 °C. The affinity in data set [1] corresponds to a Ki of 24.6 nM. Also, the Emax in data set [2] worked out at 80.3%.

The compound `Cc1cccc2c3c(n(Cc4cccc(F)c4)c12)CCC(NC(=O)C(C)C)C3` (centres unmarked) [Example 60] came in with a melting point of 188 to 191 °C. Further, the Ki in data set [1] stood at 35.9 nM. Moreover, in data set [2], it took 299 nM to reach a half-maximal effect (EC50) and the Emax turned out to be 74.2%.

Consider `CC(C)C(=O)NC1CCc2c(c3cc(Cl)ccc3n2Cc2ccccc2Cl)C1` (centres unmarked) [Example 18], for which the melting point lay within 197 to 199 °C. In data set [1], this compound returned a Ki of 10.5 nM. Further, in data set [2], the response was half-maximal at 153 nM (EC50) and the Emax came to 82.1%.

Take `CC(C)C(=O)NC1CCc2c(c3cc(-c4nnc(N)s4)ccc3n2Cc2cccc(F)c2)C1` (centres unmarked) [Example 125, N-[6-(5-Amino[1,3,4]thiadiazol-2-yl)-9-(3-fluorobenzyl)-2,3,4,9-tetrahydro-1H-carbazol-3-yl]isobutyramide]: the melting point was in the range of 251 to 254 °C. The same compound gave a Ki in data set [1] of 55.1 nM. For the same compound, in data set [2], the EC50 came out at 68.5 nM and the Emax is 75.8%.

For `Cc1ccc2c(c1)c1c(n2Cc2cccc(C#N)c2)CCC(NC(=O)C(C)C)C1` (centres unmarked) [Example 50], the melting point fell in the range of 209 to 211 °C. The compound further showed a Ki in data set [1] of 150 nM. Moreover, in data set [2], the response was half-maximal at 940 nM (EC50) and the Emax amounted to 45.8%.

For orientation: Ki means the dissociation constant of the complex between target and ligand, obtained from inhibition or displacement. By EC50 is commonly meant the midpoint of the concentration-response curve. A lower EC50 goes with an effect from little substance. One may read the melting point as the temperature, or range, at which the solid turns liquid.

These data come from US7935722B2 (Eli Lilly and Company, priority 2005, dated 2011).
